{"source": "patent US11939241B2", "about": "“Stable percarboxylic acid compositions and uses thereof” (Ecolab USA Inc., priority 2012, dated 2024)", "assay": "Quantitation of peroxide gases of decomposition (U-tube manometer)", "type": "physicochemical", "protocol": "The volume of peroxides' gases of decomposition was measured using a water filled U-tube fitted with a minimal volume tubing connected to a non-coring syringe needle. The manometer made of pyrex glass was filled partially with deionized water colored with FD&C blue dye #1 and 1,000 ppm of non-ionic surfactant. The dye allows for increased visibility of the water columns and the surfactant lowers the surface tension allowing for unbroken water columns. The manometer was also fitted with a metric ruler to allow the convenient determination of the column heights difference. Given that 1 atmosphere of pressure corresponds with […] of water column height and the limit of resolution on the column and ruler combination is about 1 mm, the signal/noise ratio approximates […].\nProcedure. Four head space vials were double rinsed with the sample solution before adding 5 mL of sample solution (via Repeat Pipettor) and sealing the vials with a silicone backed PTFE septum with aluminum cap. Immediately after sealing the vials the temperature and barometric pressure were recorded. A set of water blank replicates of the same volume were also included. The sealed vials were stored for 24-48 hours at ambient temperatures inside a dark cabinet to allow for optimal gas pressure generation.\nCalculations. By calibration of the U-tube water column displacement using a precision gas syringe, the water column height to gas volume ratio was calculated. Using the assumption of peroxide decay to molecular oxygen (ignoring CO2 or CO gases etc.), these values were converted to gas volumes and the loss of available oxygen in the sample was thereby calculated using the formulae below: 2 moles of RCO3H→2 moles of RCO2H+1 mole of O2(22.4 L of O2 at standard temperature and pressure) And 2 moles of H2O2→2 moles of H2O+1 mole of O2(22.4 L of O2 at standard temperature and pressure)", "data": [{"substance": "Hydrogen peroxide [F]", "values": [{"measurement": "Net O2 Lost", "setting": "5 mL sample, sealed vial, 24-48 hours, ambient temperature", "value": 0.017, "unit": "g"}, {"measurement": "Net Gas Gen.", "setting": "5 mL sample, sealed vial, 24-48 hours, ambient temperature, dark", "value": 11.9, "unit": "mL"}, {"measurement": "Rel. Loss O2", "setting": "24-48 hours, ambient temperature", "value": "0.02% w/w, %"}, {"measurement": "Initial H2O2", "setting": "initial", "value": "50.00 w/w, %"}, {"measurement": "Initial POAA", "setting": "initial", "value": "0.00 w/w, %"}, {"measurement": "Initial O2", "setting": "initial available oxygen", "value": "23.53 w/w, %"}]}]}
